Experimental data reported in ChEMBL document CHEMBL5518226, “A Vancomycin-Templated DNA-Encoded Library for Combating Drug-Resistant Bacteria” (2024).
Values after ≈ are worked out from the molar mass of the structure shown. Active and inactive are the calls of the source. The calls are words filed in the database; no cut-off is given here.

Key:
Staphylococcus aureus [1] = assay: Antibacterial activity against vancomycin-intermediate resistant Staphylococcus aureus Mu50 assessed as reduction in fluorescence at 10 uM incubated for 1 hrs by fluorescence microscopic analysis; type: functional, organism-based
Enterococcus faecium [2] = assay: Antibacterial activity against Enterococcus faecium clinical isolate 20-16 assessed as inhibition of bacterial growth incubated for 24 hrs by CLSI protocol based broth microdilution method; type: functional
Enterococcus faecalis [3] = assay: Antibacterial activity against vancomycin resistant Enterococcus faecalis clinical isolate 20-1 assessed as inhibition of bacterial growth incubated for 24 hrs by CLSI protocol based broth microdilution method; type: functional
Streptococcus pneumoniae [4] = assay: Antibacterial activity against penicillin susceptible Streptococcus pneumoniae clinical isolate 20-1 assessed as inhibition of bacterial growth incubated for 24 hrs by CLSI protocol based broth microdilution method; type: functional
Streptococcus pneumoniae [5] = assay: Antibacterial activity against Streptococcus pneumoniae ATCC49619 assessed as inhibition of bacterial growth incubated for 24 hrs by CLSI protocol based broth microdilution method; type: functional
Enterococcus faecium [6] = assay: Antibacterial activity against vancomycin-resistant Enterococcus faecium 0649 assessed as reduction in bacterial growth by measuring fold change at 0.0625 to 64 ug/ml incubated for 24 hrs by CLSI protocol based broth microdilution method relative to vancomycin; type: functional; conditions: dose 0.0625-64 µg/ml
Staphylococcus aureus [7] = assay: Antibacterial activity against methicillin resistant Staphylococcus aureus USA300 assessed as inhibition of bacterial growth incubated for 24 hrs by CLSI protocol based broth microdilution method; type: functional
Staphylococcus aureus [8] = assay: Antibacterial activity against vancomycin-intermediate resistant Staphylococcus aureus Mu50 assessed as reduction in bacterial growth by measuring fold change at 0.0625 to 64 ug/ml incubated for 24 hrs by CLSI protocol based broth microdilution method relative to vancomycin; type: functional; conditions: dose 0.0625-64 µg/ml
Staphylococcus aureus [9] = assay: Antibacterial activity against methicillin resistant Staphylococcus aureus clinical isolate 20-34 assessed as inhibition of bacterial growth incubated for 24 hrs by CLSI protocol based broth microdilution method; type: functional
Enterococcus faecium [10] = assay: Antibacterial activity against Enterococcus faecium clinical isolate 20-15 assessed as inhibition of bacterial growth incubated for 24 hrs by CLSI protocol based broth microdilution method; type: functional
[11] = tested on: Staphylococcus epidermidis; assay: Antibacterial activity against methicillin resistant Staphylococcus epidermidis clinical isolate 20-1 assessed as inhibition of bacterial growth incubated for 24 hrs by CLSI protocol based broth microdilution method; type: functional
Staphylococcus aureus [12] = assay: Antibacterial activity against methicillin sensitive Staphylococcus aureus ATCC29213 assessed as inhibition of bacterial growth incubated for 24 hrs by CLSI protocol based broth microdilution method; type: functional
Staphylococcus aureus [13] = assay: Antibacterial activity against linezolid resistant Staphylococcus aureus clinical isolate 20-1 assessed as inhibition of bacterial growth incubated for 24 hrs by CLSI protocol based broth microdilution method; type: functional
Enterococcus faecalis [14] = assay: Antibacterial activity against Enterococcus faecalis clinical isolate 20-11 assessed as inhibition of bacterial growth incubated for 24 hrs by CLSI protocol based broth microdilution method; type: functional
Staphylococcus aureus [15] = assay: Antibacterial activity against vancomycin-intermediate resistant Staphylococcus aureus ATCC700699 assessed as inhibition of bacterial growth incubated for 24 hrs by CLSI protocol based broth microdilution method; type: functional
[16] = tested on: Staphylococcus epidermidis; assay: Antibacterial activity against methicillin sensitive Staphylococcus epidermidis clinical isolate 20-1 assessed as inhibition of bacterial growth incubated for 24 hrs by CLSI protocol based broth microdilution method; type: functional
Staphylococcus aureus [17] = assay: Antibacterial activity against methicillin sensitive Staphylococcus aureus clinical isolate 20-45 assessed as inhibition of bacterial growth incubated for 24 hrs by CLSI protocol based broth microdilution method; type: functional
Staphylococcus aureus [18] = assay: Antibacterial activity against methicillin sensitive Staphylococcus aureus Newman assessed as inhibition of bacterial growth incubated for 24 hrs by CLSI protocol based broth microdilution method; type: functional
Staphylococcus aureus [19] = assay: Antibacterial activity against vancomycin-intermediate resistant Staphylococcus aureus Mu50 assessed as reduction in bacterial survival at 0.25 to 3 mg/ml; type: functional, organism-based; conditions: dose 0.25-3 mg/ml
Enterococcus faecium [20] = assay: Antibacterial activity against vancomycin-resistant Enterococcus faecium 0649 assessed as reduction in bacterial survival at 3 mg/ml; type: functional, organism-based
Staphylococcus aureus [21] = assay: Antibacterial activity against vancomycin-intermediate resistant Staphylococcus aureus Mu50 assessed as reduction in bacterial survival at 0.1 mg/ml; type: functional, organism-based
Streptococcus pneumoniae [22] = assay: Antibacterial activity against penicillin resistant Streptococcus pneumoniae clinical isolate 20-1 assessed as inhibition of bacterial growth incubated for 24 hrs by CLSI protocol based broth microdilution method; type: functional

In the case of CC(C)C[C@H](C(=O)N[C@H]1C(=O)N[C@@H](CC(N)=O)C(=O)N[C@H]2C(=O)N[C@H]3C(=O)N[C@H](C(=O)N[C@H](C(=O)O)c4cc(O)cc(O)c4-c4cc3ccc4O)[C@H](O)c3ccc(c(Cl)c3)Oc3cc2cc(c3O[C@@H]2O[C@H](CO)[C@@H](O)[C@H](O)[C@H]2O[C@H]2C[C@](C)(N)[C@H](O)[C@H](C)O2)Oc2ccc(cc2Cl)[C@H]1O)N(C)C(=S)Nc1ccc2c(c1)C(=O)OC21c2ccc(O)cc2Oc2cc(O)ccc21, the Activity (Staphylococcus aureus [1]) is reported as “inactive”.
CN[C@H](CC(C)C)C(=O)N[C@H]1C(=O)N[C@@H](CC(N)=O)C(=O)N[C@H]2C(=O)N[C@H]3C(=O)N[C@H](C(=O)N[C@H](C(=O)NCCCc4cn(Cc5ccc(Cl)c(Cl)c5)nn4)c4cc(O)cc(O)c4-c4cc3ccc4O)[C@H](O)c3ccc(c(Cl)c3)Oc3cc2cc(c3O[C@@H]2O[C@H](CO)[C@@H](O)[C@H](O)[C@H]2O[C@H]2C[C@](C)(N)[C@H](O)[C@H](C)O2)Oc2ccc(cc2Cl)[C@H]1O was tested, and the MIC (Enterococcus faecium [2]) was 0.06 µg/mL (≈ 0.035 µM), the MIC (Enterococcus faecalis [3]) was 16 µg/mL (≈ 9.32 µM) and the MIC (Streptococcus pneumoniae [4]) was no more than 0.015 µg/mL. For the same compound, the MIC (Streptococcus pneumoniae [5]) was no more than 0.015 µg/mL, the “fold change (FC)” value (Enterococcus faecium [6]) was 8 and the MIC (Staphylococcus aureus [7]) was no more than 0.015 µg/mL. For the same compound, the “fold change (FC)” value (Staphylococcus aureus [8]) was 8, the MIC (Staphylococcus aureus [9]) was 0.125 µg/mL (≈ 0.0728 µM) and the MIC (Enterococcus faecium [10]) was no more than 0.015 µg/mL. It also gave an MIC [11] of 0.25 µg/mL (≈ 0.146 µM), an MIC (Staphylococcus aureus [12]) of 0.125 µg/mL (≈ 0.0728 µM) and an MIC (Staphylococcus aureus [13]) of 0.125 µg/mL (≈ 0.0728 µM). It also gave an MIC (Enterococcus faecalis [14]) of 0.03 µg/mL (≈ 0.0175 µM), an MIC (Staphylococcus aureus [15]) of 2 µg/mL (≈ 1.17 µM) and an MIC [16] of 0.25 µg/mL (≈ 0.146 µM). For the same compound, the MIC (Staphylococcus aureus [17]) was 0.125 µg/mL (≈ 0.0728 µM) and the MIC (Staphylococcus aureus [18]) was 0.03 µg/mL (≈ 0.0175 µM).
C[C@H]1COc2c(N3CCN(C)CC3)c(F)cc3c(=O)c(C(=O)O)cn1c23 [LEVOFLOXACIN ANHYDROUS] showed an MIC (Enterococcus faecium [2]) of 64 µg/mL (≈ 177 µM), an MIC (Enterococcus faecalis [3]) of 64 µg/mL (≈ 177 µM) and an MIC (Staphylococcus aureus [9]) of 16 µg/mL (≈ 44.3 µM). The MIC (Enterococcus faecium [10]) was greater than 64 µg/mL, the MIC [11] was 4 µg/mL (≈ 11.1 µM) and the MIC (Staphylococcus aureus [12]) was 0.125 µg/mL (≈ 0.346 µM). It also gave an MIC (Staphylococcus aureus [13]) of 16 µg/mL (≈ 44.3 µM), an MIC (Enterococcus faecalis [14]) of 1 µg/mL (≈ 2.77 µM) and an MIC (Staphylococcus aureus [15]) of 8 µg/mL (≈ 22.1 µM). For the same compound, the MIC [16] was 4 µg/mL (≈ 11.1 µM) and the MIC (Staphylococcus aureus [17]) was 0.25 µg/mL (≈ 0.692 µM).
Work on CN[C@H](CC(C)C)C(=O)N[C@H]1C(=O)N[C@@H](CC(N)=O)C(=O)N[C@H]2C(=O)N[C@H]3C(=O)N[C@H](C(=O)N[C@H](C(=O)O)c4cc(O)cc(O)c4-c4cc3ccc4O)[C@H](O)c3ccc(c(Cl)c3)Oc3cc2cc(c3O[C@@H]2O[C@H](CO)[C@@H](O)[C@H](O)[C@H]2O[C@H]2C[C@](C)(N)[C@H](O)[C@H](C)O2)Oc2ccc(cc2Cl)[C@H]1O [VANCOMYCIN] yielded an MIC (Enterococcus faecalis [3]) greater than 64 µg/mL, an MIC (Streptococcus pneumoniae [4]) of 0.25 µg/mL (≈ 0.173 µM) and an MIC (Streptococcus pneumoniae [5]) of 0.5 µg/mL (≈ 0.345 µM). For the same compound, the Activity (Staphylococcus aureus [19]) was “Active”, the Activity (Enterococcus faecium [20]) was “inactive” and the Activity (Staphylococcus aureus [21]) was “inactive”. For the same compound, the MIC (Enterococcus faecalis [14]) was 1 µg/mL (≈ 0.69 µM) and the MIC (Streptococcus pneumoniae [22]) was 0.25 µg/mL (≈ 0.173 µM).
CN[C@H](CC(C)C)C(=O)N[C@H]1C(=O)N[C@@H](CC(N)=O)C(=O)N[C@H]2C(=O)N[C@H]3C(=O)N[C@H](C(=O)N[C@H](C(=O)NCCCc4cn(-c5ccc(OC(F)F)cc5)nn4)c4cc(O)cc(O)c4-c4cc3ccc4O)[C@H](O)c3ccc(c(Cl)c3)Oc3cc2cc(c3O[C@@H]2O[C@H](CO)[C@@H](O)[C@H](O)[C@H]2O[C@H]2C[C@](C)(N)[C@H](O)[C@H](C)O2)Oc2ccc(cc2Cl)[C@H]1O was tested, and the MIC (Enterococcus faecium [2]) was 0.125 µg/mL (≈ 0.0736 µM), the MIC (Enterococcus faecalis [3]) was 16 µg/mL (≈ 9.41 µM) and the MIC (Streptococcus pneumoniae [4]) was no more than 0.015 µg/mL. For the same compound, the MIC (Streptococcus pneumoniae [5]) was no more than 0.015 µg/mL, the “fold change (FC)” value (Enterococcus faecium [6]) was 8 and the MIC (Staphylococcus aureus [7]) was 0.06 µg/mL (≈ 0.0353 µM). The “fold change (FC)” value (Staphylococcus aureus [8]) was 8, the MIC (Staphylococcus aureus [9]) was 0.06 µg/mL (≈ 0.0353 µM) and the MIC (Enterococcus faecium [10]) was no more than 0.015 µg/mL. It also gave an MIC [11] of 0.25 µg/mL (≈ 0.147 µM), an MIC (Staphylococcus aureus [12]) of no more than 0.015 µg/mL and an MIC (Enterococcus faecalis [14]) of no more than 0.015 µg/mL. The MIC (Staphylococcus aureus [15]) was 1 µg/mL (≈ 0.588 µM), the MIC [16] was 0.25 µg/mL (≈ 0.147 µM) and the MIC (Staphylococcus aureus [17]) was no more than 0.015 µg/mL. It also gave an MIC (Staphylococcus aureus [18]) of 0.125 µg/mL (≈ 0.0736 µM).
